# Experimental data reported in patent US11420910B2, “Methods for low temperature fluorine-18 radiolabeling of biomolecules” (KATHOLIEKE UNIVERSITEIT LEUVEN, priority 2014, dated 2022).
# Values joined by “and” are separate entries in the source; they are usually repeats but may differ in a detail not shown here. Equal entries are not always repeated.
# Key:
# [1] = Stability tests of Al18F-complexes in PBS (0.1 M, pH 7) at 37° C., Example 26; type: physicochemical; details: PBS 0.1 M pH 7, 37° C.
# Experimental: (§1) 400 μl of each purified [Al^18F]-complex solution was added to 1 mL of PBS and/or 1 mL of rat serum. […] Finally the supernatant was analysed using iTLC-SG.
# [2] = Stability tests of Al18F-complexes in rat serum at 37° C., Example 26; type: in vitro ADME
# Experimental: as §1
# [3] = target: T1, PSMA (Mus musculus, UniProt O35409); assay: Biodistribution of PSMA tracers in mice with or without coadministration of 2-PMPA; type: in vivo
# T1 construct: organs with reported high expression of PSMA such as kidney; from tissue; host or cells: living mice; kidney, spleen and other organs counted ex vivo
# T1 sequence (O35409 whole entry): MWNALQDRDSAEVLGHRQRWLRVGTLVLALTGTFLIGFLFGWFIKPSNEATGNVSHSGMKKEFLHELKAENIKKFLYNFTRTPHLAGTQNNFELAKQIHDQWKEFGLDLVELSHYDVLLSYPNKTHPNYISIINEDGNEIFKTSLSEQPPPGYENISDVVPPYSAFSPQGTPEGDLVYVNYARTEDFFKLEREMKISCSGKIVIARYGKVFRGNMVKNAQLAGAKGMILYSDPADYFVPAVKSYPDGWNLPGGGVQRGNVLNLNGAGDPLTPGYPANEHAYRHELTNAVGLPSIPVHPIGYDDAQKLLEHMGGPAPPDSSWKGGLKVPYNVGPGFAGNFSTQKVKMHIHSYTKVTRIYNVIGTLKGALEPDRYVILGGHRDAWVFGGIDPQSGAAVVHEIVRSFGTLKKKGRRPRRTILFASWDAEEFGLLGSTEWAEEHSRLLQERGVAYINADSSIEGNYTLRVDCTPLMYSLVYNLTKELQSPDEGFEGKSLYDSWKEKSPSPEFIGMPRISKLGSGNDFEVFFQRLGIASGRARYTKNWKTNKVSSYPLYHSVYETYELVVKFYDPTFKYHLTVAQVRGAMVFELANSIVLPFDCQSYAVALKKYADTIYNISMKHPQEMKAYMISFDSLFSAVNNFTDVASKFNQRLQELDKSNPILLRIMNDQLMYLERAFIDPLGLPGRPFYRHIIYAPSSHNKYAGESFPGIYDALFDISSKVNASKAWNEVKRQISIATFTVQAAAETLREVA
# Experimental: The compounds ^68Ga-HBED-CC-PSMA, Al^18F-L6-PSMA, Al^18F-L27-PSMA or Al^18F-NODA-MPAA-PSMA were injected via the tail vain (1-2 MBq) with or without coadministration of 2 mg/kg 2-PMPA. At 10 min or 60 min p.i. (N=4), the animals were sacrificed. Blood and major organs were collected in tarred tubes and weighed. The radioactivity was measured using an automated γ-counter and calculated as % ID and % ID/g.
# (§2) Quantification of radioactivity during biodistribution studies was performed using an automated gamma counter equipped with a 3-inch NaI(TI) well crystal coupled to a multichannel analyzer, mounted in a sample changer (Perkin Elmer 1480 Wizard 3q). Counts were corrected for background radiation, physical decay and counter dead time.
# [4] = Stability tests in PBS (0.1 M, pH 7.4) at 37° C., Examples 29 and 33; type: physicochemical; details: for stability in PBS (in words): 37° C.; for % intact tracer: PBS 0.1M pH 7.4, 37° C., 1 h
# Experimental: These mixtures were incubated at 37° C. and analysed by iTLC-SG at 10, 30, 60, 120, 180 and 240 min after the start of the incubation (N=3). Serum samples were denatured by addition of 50 μl of the serum solution to 50 μl of acetonitrile. The mixture was stirred and centrifuged (1300 g, 3 min). Finally the supernatant was analysed using iTLC-SG.
# [5] = Biodistribution of Al18F-complexes and {Al18F}2+ in healthy male NMRI mice; type: in vivo; details: NMRI mice, tail vein
# Experimental: as §2
# (§3) The biodistribution of the [Al^18F]-L3 complex and {Al^18F}^2+ was determined in healthy male Naval Medical Research Institute (NMRI) mice (body weight: 30-40 g) at 10 and 60 min post injection (p.i.) (n=4/time point). Mice were injected with the [Al^18F]-L3 complex (about 1 MBq) or {Al^18F}^2+ (5.55 MBq) via a tail vein under anesthesia (2.5% isoflurane in O2 at 1 L/min flow rate) and sacrificed by decapitation at above specified time points. Blood and major organs were collected in tared tubes and weighed. The radioactivity in blood, organs and other body parts was counted using an automated γ-counter. For the calculation of total radioactivity in blood, bone and muscle, masses were assumed to be, respectively, 7, 12 and 40% of the total body mass.^20, 21
# as §2, with “Nai(TI)” for “NaI(TI)”
# as §3, with “[Al^18F]-L26” for “[Al^18F]-L3”, “(n=3/time point for 10 min p.i. and n=4/time point for 60 min p.i.).” for “(n=4/time point).”, “mass.^20,21” for “mass.^20, 21”
compound,measurement,setting,value
O=C1CN2CCN(Cc3ccccc3)CC(=O)[O][Al-]([18F])([O]1)[O]C(=O)C2 [Al^18F-L1],stability in PBS (in words),[1],do not seem to be stable
same,stability in rat serum (in words),[2],unstable in serum
same,RCP,[2]; 120 min,0%
O=C([O-])CN(CCN(CC(=O)[O-])Cc1cc(CCC(=O)NCCCCCC(=O)NCCCC[C@H](NC(=O)N[C@@H](CCC(=O)O)C(=O)O)C(=O)O)ccc1[O-])Cc1cc(CCC(=O)O)ccc1[O-].[68Ga+3].[OH3+] [^68Ga-HBED-CC-PSMA],affinity for the PSMA receptor indicated by spleen and kidney uptake (in words),[3],high affinity for the PSMA receptor
same,in vivo stability judged from bone uptake (in words),[3],high in vivo stability
same,kidney and spleen retention when 2-PMPA was coinjected (in words),"[3]; 60 min p.i., 2 mg/kg 2-PMPA",nearly completely blocked
same,retention in kidney,"[3]; 60 min p.i., without 2-PMPA",269.90±47.23 % ID/g
same,retention in spleen,"[3]; 60 min p.i., without 2-PMPA",2.72±0.42 % ID/g
same,bone uptake,"[3]; tail vein, time point not stated",0.39±0.09 % ID/g
O=C1CN2CC(=O)[O][Al-]([18F])([O]1)[O]C(=O)CN(Cc1ccccc1)C1CC=CCC12 (centres unmarked) [Al^18F-L30],stability in PBS (in words),[4],only moderate stability
O=C1CN(Cc2ccccc2)CCN2CC(=O)[O][Al-]([18F])([O]1)[O]c1ccc(F)cc1C2 (centres unmarked) [Al^18F-L4],stability in PBS (in words),[1],comparable to that of Al^18F-NODA-benzyl up to 60 minutes
same,RCP,[1]; 120 min,85%
same,RCP,[1]; 240 min,74%
same,stability in rat serum (in words),[2],good stability in rat serum
same,RCP,[2]; 240 min,41%
O=C1CN(Cc2ccccc2)CCN(Cc2ccccn2)CC(=O)[O][Al]([18F])[O]1 [Al^18F-L7],stability in PBS (in words),[1],do not seem to be stable
O=C1CN2CC(=O)[O][Al-]([18F])([O]1)[O]C(=O)CN(Cc1ccccc1)C1CCCC12 (centres unmarked) [Al^18F-L31],% intact tracer,[4],0%
same,stability in PBS (in words),[4],unstable
O=C1CN(Cc2ccccc2O)CCN2CC(=O)[O][Al-]([18F])([O]1)[O]c1ccccc1C2 (centres unmarked) [Al^18F-L2],stability in PBS (in words),[1],do not seem to be stable
same,RCP,[1]; 120 min,31%
same,stability in rat serum (in words),[2],unstable in serum
same,RCP,[2]; 120 min,0%
"[18F][Al+2] [{Al^18F}^2+, reference compound]",uptake in blood,[5]; 10 min p.i.,5.0 % ID
same,uptake in bone,[5]; 10 min p.i.,60 % ID
same,uptake in intestines,[5]; 10 min p.i.,4.22 % ID
same,uptake in kidneys,[5]; 10 min p.i.,2.2 % ID
same,uptake in liver,[5]; 10 min p.i.,3.71 % ID
same,uptake in urinary bladder,[5]; 10 min p.i.,20.7 % ID
same,uptake in blood,[5]; 60 min p.i.,0.6 % ID
same,uptake in bone,[5]; 60 min p.i.,83 % ID and 83.3 % ID
same,uptake in intestines,[5]; 60 min p.i.,1.91 % ID
same,uptake in kidneys,[5]; 60 min p.i.,0.5 % ID
same,uptake in liver,[5]; 60 min p.i.,0.55 % ID
same,uptake in urinary bladder,[5]; 60 min p.i.,30.6 % ID
O=C1CN2CC(=O)[O][Al-]([18F])([O]1)[O]C(=O)CN(Cc1ccccc1)c1ccccc12 [Al^18F-L32],% intact tracer,[4],0%
same,stability in PBS (in words),[4],unstable
O=C1CN(Cc2ccccc2)CCN2CC(=O)[O][Al-]([18F])([O]1)[O]c1ccc([N+](=O)[O-])cc1C2 (centres unmarked) [Al^18F-L5],stability in PBS (in words),[1],comparable to that of Al^18F-NODA-benzyl up to 60 minutes
same,RCP,[1]; 120 min,78%
same,RCP,[1]; 240 min,65%
same,stability in rat serum (in words),[2],good stability in rat serum
same,RCP,[2]; 240 min,39%
"O=C1CN2CCN(CCN(Cc3ccccc3)CC2)CC(=O)[O][Al]([18F])[O]1 [Al^18F-NODA-benzyl, reference compound]",RCP,[1]; 60 min,99%
same,RCP,[1]; 120 min,98%
same,RCP,[1]; 240 min,88%
same,RCP,[2]; 60 min,99%
same,RCP,[2]; 120 min,97%
same,RCP,[2]; 240 min,87%
